Literature values as cited in patent publication US9439866B2, “Trazodone composition for once a day administration” (priority 2005, dated 2016).
“Also recorded” adds a separate entry of the source.

Compound: Cl.O=c1n(CCCN2CCN(c3cccc(Cl)c3)CC2)nc2ccccn12 [trazodone]
- solubility below its pKa (acid media (stomach and upper intestines), pH below pKa): highly soluble
- solubility above its pKa (neutral and basic conditions of the lower intestine, pH above pKa): very low; also recorded: poorly soluble
